Consider five molecules from PMC6767236, “Selective Cannabinoid 2 Receptor Agonists as Potential Therapeutic Drugs for the Treatment of Endotoxin-Induced Uveitis” (Molecules, 2019).

≈ marks a conversion by molar mass, not a printed value. Where two headings read alike, the source gives them in different places.

A short description of data set [1]: Octanol/water distribution coefficient (logD).
Data set [2] addresses T1, human CB2R (Homo sapiens, UniProt P34972).
T1 construct: bgal (beta-galactosidase fragment of the PathHunter system, named only in the cell line's name); host or cells: CHO-K1 (CHOK1hCB2_bgal)
The data set is described as follows: cAMP assay, CHO cells expressing human CB2R. The format is cell-based. Here is the method:
The effect of ligands on the forskolin-stimulated accumulation of cAMP was determined using the LANCE ULTRA cAMP kit as per the manufacturer’s instruction (Perkin-Elmer Life Sciences, Boston, MA, USA).
For human CB2R and CB1R, cAMP assays were performed using CHO cells stably expressing human CB2R or human CB1R (DiscoveRx, Fremont, CA, USA) using a cAMP-Nano-TRF detection kit (Roche Diagnostics, Penzberg, Germany). Cells were seeded 17–24 h prior to the experiment at a density of 3 × 10^4 cells per well in a black 96-well plate with clear flat bottom (Corning, Wiesbaden, Germany) and incubated in 5% CO2 at 37 °C in a humidified incubator. The growth medium was exchanged with Krebs Ringer bicarbonate buffer with 1 mmol/L 3-isobutyl-1-methylxanthine (IBMX), 0.1% fatty acid-free BSA and incubated at 30 °C for 60 min. Agonist was added to a final assay volume of 100 μL and the mixture was incubated for 30 min at 30 °C. The assay was stopped by the addition of 50 μL 3 × lysis reagent and shaken for 2 h at room temperature. The time-resolved fluorescence energy transfer was measured using an LF502 Nanoscan FLT (IOM, Berlin, Germany), equipped with a laser as excitation source. cAMP content was determined from the function of a standard curve spanning from 10 to 0.13 nmol/L cAMP. Efficacies are expressed as percent relative to 1 µM CP55940.

Data set [3] in a line: Kinetic lyophilization solubility assay. The format is physicochemical. The settings on record: 0.05 M phosphate buffer, aqueous buffer, thermodynamic from solid; phosphate buffer pH 6.5. The procedure:
The X-ray structure of CB2R complexed with the antagonist AM10257 (5zty) was used as a template to dock CB2R ligands. The docking experiments were performed with the software GOLD ([…]) with default settings. The best 10 docking poses for each compound were energy-minimized within the binding pocket using MOE ( molecular operating environment ver. 2014.09, Chemical Computing Group, Montreal, Canada) and examined visually to select the most reasonable docking mode with respect to molecular interactions and internal conformational strain. The final selection was based on checking consiste ncy with the available structure –activity relationship information.
Kinetic Lyophilization Solubility Assay
The solubility of a test compound in phosphate buffer at pH 6.5 from evaporated DMSO stock solution is measured over time, resulting in the kinetic solubility of the compound. Samples were prepared in duplicate from 10 mM DMSO stock solutions. […] The filtrate and its 1 :10 dilution were analyzed by direct UV measurement or by HPLC -UV. […]
Approximately 8.6 mg test compound per milliliter solvent/vehicle was stirred in HPLC vials (9 × 12 × 32 mm, Waters) at 350 rpm for 15 h. […] Addition of solid material was repeated up to 96 h or until residual solid particles could be detected. […] The filtrates were diluted in ethanol and analyzed for content by UPLC. […]

Data set [4] addresses T2, mouse CB2R (Mus musculus, UniProt P47936). Also on record: bgal (beta-galactosidase fragment of the PathHunter system, named only in the cell line's name); host or cells: CHO-K1 (CHOK1mCB2_bgal). The settings on record: [3H]-CP55940 displacement; * previously published; cited from earlier work.
Data set [5] addresses T2, mouse CB2R. Also on record: bgal (beta-galactosidase fragment of the PathHunter system, named only in the cell line's name); host or cells: CHO-K1 (CHOK1mCB2_bgal). Particulars: * previously published; read-out: mouse CB2R: cAMP EC50; cited from earlier work.

T2 sequence (P47936 whole entry, the tested form may be a part): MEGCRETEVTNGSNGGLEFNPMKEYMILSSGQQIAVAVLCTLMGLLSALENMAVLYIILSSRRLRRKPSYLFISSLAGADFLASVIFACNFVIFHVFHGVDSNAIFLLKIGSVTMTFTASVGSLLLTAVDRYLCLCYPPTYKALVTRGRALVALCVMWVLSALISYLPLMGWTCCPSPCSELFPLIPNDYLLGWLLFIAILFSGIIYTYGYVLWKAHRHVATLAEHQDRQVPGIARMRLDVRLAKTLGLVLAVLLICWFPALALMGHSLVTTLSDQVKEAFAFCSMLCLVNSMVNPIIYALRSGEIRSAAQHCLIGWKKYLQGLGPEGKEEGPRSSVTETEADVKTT
T1 sequence (P34972 whole entry, the tested form may be a part): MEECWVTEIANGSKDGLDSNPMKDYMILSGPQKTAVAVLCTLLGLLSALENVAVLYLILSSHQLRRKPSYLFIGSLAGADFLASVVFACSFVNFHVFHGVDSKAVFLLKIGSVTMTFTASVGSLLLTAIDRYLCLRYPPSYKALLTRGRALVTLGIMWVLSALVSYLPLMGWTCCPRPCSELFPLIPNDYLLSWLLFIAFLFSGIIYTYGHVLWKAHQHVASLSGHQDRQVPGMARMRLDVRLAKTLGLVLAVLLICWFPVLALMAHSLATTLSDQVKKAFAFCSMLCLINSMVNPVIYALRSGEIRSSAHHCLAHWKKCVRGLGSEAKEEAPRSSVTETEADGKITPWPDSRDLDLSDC

`CCCCCCC(C)(C)c1cc(OC)c([C@H]2C=C(CO)[C@H]3C[C@@H]2C3(C)C)c(OC)c1` [HU308, {(1S,4S,5S)-4-[2,6-Dimethoxy-4-(2-methyloctan-2-yl)phenyl]-6,6-dimethylbicyclo[3.1.1]hept-2-en-2-yl}methanol, reference compound] had a logD in data set [1] (octanol/water, pH 7.4) of 4.29.

For the molecule `CCCCCCC(C)(C)c1cc(OC)c(C2=C[C@H]3CC[C@]2(CO)C3(C)C)c(OC)c1` [HU910, {(1S,4R)-2-[2,6-dimethoxy-4-(2-methyloctan-2-yl)phenyl]-7,7-dimethylbicyclo[2.2.1]hept-2-en-1-yl}methanol, reference compound], the “hCB1R cAMP EC50/hCB2R cAMP EC50” value in data set [2] is over 2500. The “LogD (at pH 7.4)” value in data set [1] was “out of range”.

On to `CNC(=O)[C@@H](NC(=O)c1cc(OCC2(C)COC2)c(C2CC2)cn1)C(C)(C)C` [RO6851228, 5-Cyclopropyl-N-[(2S)-3,3-dimethyl-1-(methylamino)-1-oxobutan-2-yl]-4-[(3-methyloxetan-3-yl)methoxy]pyridine-2-carboxamide], for which the solubility (kinetic) at 15 h in data set [3] amounted to 174 ± 47 µg/mL (≈ 447 µM). In data set [4], the Ki was 1 nM. Also, the EC50 in data set [5] is 4 nM.

In turn, `Cc1nc([C@](C)(CC2CC2)NC(=O)c2cc(OCC(F)(F)F)c(C3CC3)cn2)no1` [RO6871085, 5-Cyclopropyl-N-[(2S)-1-cyclopropyl-2-(5-methyl-1,2,4-oxadiazol-3-yl)propan-2-yl]-4-(2,2,2-trifluoroethoxy)pyridine-2-carboxamide] had a kinetic solubility at 15 h in data set [3] of 4.2 ± 0.1 µg/mL (≈ 9.9 µM). In addition, the Ki in data set [4] was 6 nM. For the same molecule, the 50% effective concentration (EC50) in data set [5] was 3 nM.

For the molecule `CC(C)(C)c1nc(N2CC[C@H](O)C2)c2nnn(Cc3nnnn3C3CC3)c2n1` [RO6871304, (3S)-1-{5-tert-butyl-3-[(1-cyclopropyl-1H-tetrazol-5-yl)methyl]-3H-[1,2, 3]triazolo[4,5-d]pyrimidin-7-yl}pyrrolidin-3-ol], in data set [2] (functional selectivity), the “hCB1R cAMP EC50/hCB2R cAMP EC50” value is listed as >10,000.

As a reminder, the logD is the decadic logarithm of the distribution of all forms, ionised or not, between an organic phase and buffer at a given pH. The low end stands for lower lipophilicity, the high end for higher lipophilicity. As usually defined, the solubility (kinetic) is solubility judged after dilution from a stock solution rather than from solid. One may read the Ki as a measure of affinity in units of concentration, obtained from inhibition or displacement. Broadly, the EC50 is the concentration that produces a half-maximal response.
